Source: publication PMC7931627 (ACS Central Science, 2021)

Columns and labels:
infectious SARS-CoV-2 [1] = assay type: cell-based
infectious SARS-CoV-2 [2] = experiment: MTT antiviral assay: protection against viral cytopathic effect in Vero E6 cells; assay type: cell-based
[3] = tested on: normal human bronchial epithelial cells (NHBE); conditions: MTT
Vero E6 cells = conditions: MTT, no virus
SARS-CoV-2 M^pro = SARS-CoV-2 M^pro (Severe acute respiratory syndrome coronavirus 2, UniProt P0DTD1); experiment: biochemical; assay type: biochemical; conditions: for IC50: IC50, inhibition of SARS-CoV-2 Mpro, kinetic assay, 100 nM Mpro, triplicate, footnote a: fluorescence of compound interfered with assay
[4] = tested on: noninfectious SARS-CoV-2 replicon; assay type: cell-based; conditions: 5 in combination with remdesivir, MacSynergy II

Row | Compound | EC50 Plaque (infectious SARS-CoV-2 [1]) | EC50 MTT (infectious SARS-CoV-2 [2]) | IC50 (SARS-CoV-2 M^pro) [µM] | also measured
1 | O=c1[nH]cc(-c2cc(-c3cc(Cl)cc(OCc4ccccc4)c3)c(=O)n(-c3cccnc3)c2)c(=O)[nH]1 [Compound 14] | antiviral activity was found | not in the MTT assay | – | –
2 | O=c1[nH]cc(-c2cc(-c3cc(Cl)cc(OCc4ccccc4Cl)c3)c(=O)n(-c3cccnc3)c2)c(=O)[nH]1 [Compound 21] | showed activity | lacked antiviral activity | – | –
3 | N#Cc1ccccc1-c1cc(-c2cc(Cl)cc(OCC3CC3)c2)c(=O)n(-c2cccnc2)c1 [Compound 26] | – | – | – | CC50 NHBE [3]: no cytotoxicity; CC50 Vero E6 (Vero E6 cells): no cytotoxicity
4 | N#Cc1ccccc1-c1cc(-c2cccc(Cl)c2)c(=O)n(-c2cccnc2)c1 [Compound 2] | – | – | 9.99 ± 2.5 | –
5 | N#Cc1ccccc1-c1cc(-c2cc(Cl)cc(Cl)c2)c(=O)n(-c2cccnc2)c1 [Compound 4] | – | – | 4.02 ± 1.36 | factor of enhancement in inhibitory activity (SARS-CoV-2 M^pro; 4 vs 2, addition of second chlorine): ~2
6 | O=c1[nH]cc(-c2cc(-c3cc(Cl)cc(OCC4CC4)c3)c(=O)n(-c3cccnc3)c2)c(=O)[nH]1 [Compound 24] | – | – | – | fold boost in potency (SARS-CoV-2 M^pro; 24 vs 11, uracil series): 3
7 | O=c1[nH]cc(-c2cc(-c3cc(Cl)c(F)c(OCc4ccccc4Cl)c3)c(=O)n(-c3cccnc3)c2)c(=O)[nH]1 [Compound 23] | showed activity | lacked antiviral activity | – | –
8 | O=c1[nH]cc(-c2cc(-c3cccc(Cl)c3)c(=O)n(-c3cccnc3)c2)c(=O)[nH]1 [Compound 3] | – | – | 6.38 ± 1.21 | –
9 | CCCOc1cc(Cl)cc(-c2cc(-c3ccccc3C#N)cn(-c3cccnc3)c2=O)c1 [Compound 5] | – | – | – | factor of improvement in potency (SARS-CoV-2 M^pro; 5 over 4): ca. 30; antagonism volume [4]: 0 μM^2%; mean synergy volume [4]: 30.8 μM^2%
